{
  "source": "patent US8324166B2",
  "about": "“Neuroprotection using NAP-like and SAL-like peptide mimetics” (Ramot at Tel-Aviv University, Ltd., priority 2007, dated 2012)",
  "key": {"ADNP": {"system": "ADNP", "assay": "Nuclear ADNP level in cerebral cortex by immunoblotting", "type": "in vivo, mouse", "conditions": "NAT vs vehicle treated TAU-Tg, p=0.0028, listed as NAT", "experimental": "(§1) The experiment included three groups: Tau-Tg female mice, 10-month-old, treated by intranasal administration of NAT 2 μg/5 μl/mouse/day (n=5) or vehicle (SW/mouse/day) (n=6), and as control, non-Tg female littermates treated by vehicle (SW/mouse/day) (n=7).\nMouse brain tissue was rapidly dissected and quickly separated into four different brain sections: cortex, hippocampus, cerebellum and rest of the brain. Brains were kept frozen at −80° C. for further biochemical analysis. Total levels of nuclear ADNP were analyzed by immunoblotting. Cerebral cortex samples (˜50 mg each) were homogenized and cytoplasmic and nucleus proteins were separated using lysis buffer (20 mM TRIS HCl pH […], 0.1 mM EDTA, 1.5 mM MgCl2, 0.2% NP-40) and extraction buffer (10 mM TRIS HCl pH 7.7, 0.1 mM EDTA, 1.5 mM MgCl2, 20% Glycerol, 1.61 gr NaCl). Protein amount was estimated and corrected by using the Bradford assay and then separated by electrophoresis on 12% polyacrylamide gels containing SDS (Shiryaev et al., (2009) Neurobiol Dis, 34, 381-388). Western blot analyses were performed by applying brain protein samples onto two gels. Each gel had sample representation from each one of the three groups. […] Protein bands on hyperfilm were quantified using photochromatography analysis. The ADNP amount in each band was calculated as its percentage from the total amount of all bands. […]"}, "[1]": {"target": "VQIVYK (peptide derived from third microtubule binding repeat of tau) (Homo sapiens, UniProt P10636)", "assay": "In vitro VQIVYK (tau-like) aggregation assay, Thioflavin S", "type": "biochemical", "conditions": "peptides 10^−17 M -10^−9 M; 100 μM VQIVYK, polyglutamate 250 μM, MOPS pH 6.5, 7 days; compared with NAP", "experimental": "VQIVYK aggregation: Tau is a highly soluble protein. The unfolded protein lacks a defined 3D structure. Its main role is stabilization of microtubules in neuronal axons. Tau contains three or four microtubule binding repeats. ^306VQIVYK^311 is a peptide derived from the beginning of the third microtubule binding repeat of tau, which is present in all tau variants.\nIn vitro aggregation assay was performed in the presence of polyglutamic acid (or heparin), VQIVYK aggregates were further detected by Thioflavin S (excitation 485 nm and emission 535) with emission intensity greatly increasing.\nFirst, different concentrations of polyglutamic acid (0,100 μM, 250 μM, 400 μM) VQIVYK and either […] (NH4Ac) 50 mM pH 6.5 or MOPS 20 mM pH 6.5 and Thioflavin S 5 μM were mixed together and incubated at room temperature. The extent of aggregation was read at excitation 485 nm and emission 535 nm using the infinite 200 system with the Magellan program.\nIn order to avoid reading self peptide aggregation as VQIVYK aggregation, for each peptide concentration, the fluorescence of the peptide solution without VQIVYK was subtracted from the fluorescence of each peptide concentration containing VQIVYK."}, "[2]": {"system": "rTg(tauP301L)4510 mouse (Tau-Tg)", "assay": "Morris water maze in Tau transgenic mice", "type": "in vivo", "conditions": "Tau-Tg female mice, intranasal NAT 2 μg/5 μl/mouse/day; p=0.039", "experimental": "The mouse model, used in the current study, was previously described (Ramsden et al., (2005) J Neurosci, 25, 10637-10647). The rTg(tauP301L)4510 mouse (designated as Tau-Tg below) expresses the human 4-repeat Tau with the P301L mutation (4RON) associated with frontotemporal dementia and Parkinsonism linked to chromosome 17.\nas §1\nNAT was dissolved in a vehicle solution, in which each milliliter include 7.5 mg of NaCl, 1.7 mg of citric acid monohydrate, 3 mg of disodium phosphate dehydrate, and 0.2 mg of benzalkonium chloride solution (50%). 5 μl of NAT or vehicle solution (DD) were administered intranasally.\nTreatment started at 9 months of age and continued daily for a period of 5 weeks. At each test NAT was applied 1 h before the test begun.\nEach mouse was placed in a pool of water that is colored opaque with powdered non-fat milk, where it must swim to a hidden escape platform. […]\nExperimental procedure: Mice were treated with NAT or vehicle and then habituated for 1 hour in the experiment room. […] The time required for reaching the platform in each trial and the path lengths were measured. […]"}},
  "note": "Entries after “also recorded” stand apart in the source; their conditions may differ.",
  "data": [
    {"sequence": "NATLSIHQ (synthetic NAP-like peptide)", "values": [
      {"measurement": "amount of nuclear ADNP protein", "setting": "ADNP", "result": "difference between the NAT and vehicle treated TAU-Tg groups; also recorded: statistically significant increase"},
      {"measurement": "inhibition of VQIVYK (tau) aggregation", "setting": "[1]", "result": "superior to NAP; also recorded: superior effect than NAPVSIPQ"},
      {"measurement": "improvement in learning: latency to find the hidden platform, first day vs fifth day, second daily trial", "setting": "[2]", "result": "Significant improvement"}
    ]}
  ]
}
